PMC5815522 (Bioorganic & medicinal chemistry, 2016)
Where “and” joins values, the source holds several entries; their conditions need not be identical. Identical values can stand only once. Like-named read-outs stand apart in the source and are kept apart here.

Key:
[1] = Electronic absorption spectra in MeOH; format: physicochemical; conditions: in CH3OH
[2] = Steady-state fluorescence spectra and quantum yields in CH3OH; format: physicochemical; conditions: for Quantum yield for fluorescence ΦFL: excitation at 532 nm, ± SD
[3] = format: physicochemical; conditions: air-saturated CH3OH, ± SD
HUT-78 cells [4] = format: cell-based, human
[5] = test system: CD3+ cells of SEB-stimulated PBMCs; format: cell-based, human
CD3+ (CD25+) cells = format: cell-based, human
CD3+ (CD25−) cells = format: cell-based, human
P-gp [6] = biological target: T1, P-gp (Homo sapiens, UniProt P08183); experiment: P-gp transport studies across MDCKII-MDR1 monolayers; conditions: for PPassive: mean of PAB and PBA in the fully inhibited system; for PBA/PAB / PAB, transport in absorptive direction / PBA, transport in secretory direction: no inhibitor; for PAB, transport in absorptive direction / PBA, transport in secretory direction / PAB, transport in absorptive direction (+inh) / PBA, transport in secretory direction (+inh): 5 × 10^−6 M dye, 4.3 mg mL^−1 BSA, ± SD; for PAB, transport in absorptive direction (+inh) / PBA, transport in secretory direction (+inh): with 5 × 10^−6 M inhibitor 15
HUT-78 cells [7] = experiment: Uptake in presence and absence of verapamil by flow cytometry; format: cell-based, human; conditions: 2 × 10^−7 M selenorhodamine, 1 × 10^−4 M VER, 1 h, mean ± SD
[8] = in CH3OH; cited from earlier work
[9] = in CH3OH, cited from earlier work; for Quantum yield for fluorescence ΦFL: excitation at 532 nm, ± SD
[10] = CH3OH, ± SD; cited from earlier work
Colo-26 cells = conditions: P-gp-expressing Colo-26 cells; cited from earlier work
[11] = ± SD; cited from earlier work
CD4+ (helper T cells) = format: cell-based, human
CD8+ (cytotoxic T cells) = format: cell-based, human
P-gp [12] = biological target: T1, P-gp; conditions: cited from earlier work; for PPassive: mean of PAB and PBA in the fully inhibited system; for PAB, transport in absorptive direction / PBA, transport in secretory direction / PBA/PAB: no inhibitor; for PAB, transport in absorptive direction (+inh) / PBA, transport in secretory direction (+inh): with inhibitor
HUT-78 cells [13] = experiment: Colocalization with organelle reporters by ImageStream imaging flow cytometry; format: cell-based, human; conditions: ± SD

T1 sequence (P08183 whole entry): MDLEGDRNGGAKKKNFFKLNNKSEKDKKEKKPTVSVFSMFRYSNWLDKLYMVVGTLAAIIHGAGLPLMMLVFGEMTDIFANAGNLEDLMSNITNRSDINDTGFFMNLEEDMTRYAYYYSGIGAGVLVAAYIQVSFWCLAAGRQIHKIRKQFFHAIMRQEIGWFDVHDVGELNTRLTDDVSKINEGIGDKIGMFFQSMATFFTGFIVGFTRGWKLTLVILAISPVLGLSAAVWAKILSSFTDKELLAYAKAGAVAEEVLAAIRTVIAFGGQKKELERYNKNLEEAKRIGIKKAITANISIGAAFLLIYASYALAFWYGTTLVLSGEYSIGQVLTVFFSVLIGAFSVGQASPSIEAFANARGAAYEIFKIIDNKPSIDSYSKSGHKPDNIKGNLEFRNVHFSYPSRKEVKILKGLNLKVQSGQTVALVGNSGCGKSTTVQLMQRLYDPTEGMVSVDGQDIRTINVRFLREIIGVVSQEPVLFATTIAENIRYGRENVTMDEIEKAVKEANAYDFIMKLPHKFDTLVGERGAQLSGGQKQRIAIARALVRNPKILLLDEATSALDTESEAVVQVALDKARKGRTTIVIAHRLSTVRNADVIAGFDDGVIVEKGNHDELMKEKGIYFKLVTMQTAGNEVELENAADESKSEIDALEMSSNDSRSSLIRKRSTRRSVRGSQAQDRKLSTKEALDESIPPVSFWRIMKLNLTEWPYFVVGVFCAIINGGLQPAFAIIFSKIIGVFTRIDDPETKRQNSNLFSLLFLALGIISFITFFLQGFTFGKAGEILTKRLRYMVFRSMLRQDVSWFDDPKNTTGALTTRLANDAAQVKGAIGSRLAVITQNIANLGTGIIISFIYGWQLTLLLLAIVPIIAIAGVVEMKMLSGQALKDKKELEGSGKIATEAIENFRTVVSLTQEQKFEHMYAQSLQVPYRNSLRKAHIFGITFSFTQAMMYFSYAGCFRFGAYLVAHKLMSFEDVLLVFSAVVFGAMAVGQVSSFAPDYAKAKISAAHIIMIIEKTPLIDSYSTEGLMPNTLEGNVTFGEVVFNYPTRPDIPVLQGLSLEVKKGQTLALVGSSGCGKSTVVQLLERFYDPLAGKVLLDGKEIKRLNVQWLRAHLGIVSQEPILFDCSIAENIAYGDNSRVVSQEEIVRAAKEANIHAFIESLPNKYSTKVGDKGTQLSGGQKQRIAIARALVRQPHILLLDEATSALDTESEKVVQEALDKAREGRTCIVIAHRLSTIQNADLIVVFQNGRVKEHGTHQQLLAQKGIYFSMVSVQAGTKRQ

Compound | Absorption maximum λmax [1] [nm] | Molar extinction coefficient ε [1] [M⁻¹ cm⁻¹] | Fluorescence emission maximum λFL [2] [nm] | Quantum yield for fluorescence ΦFL [2] | Quantum yield for the generation of singlet oxygen Φ(1O2) [3] | % survival HUT-78 (HUT-78 cells [4]) [%] | % survival CD3+ [5] [%] | % survival CD3+ (CD25+) (CD3+ (CD25+) cells) [%] | % survival CD3+ (CD25−) (CD3+ (CD25−) cells) [%] | PPassive (P-gp [6]) | PBA/PAB (P-gp [6]) | PAB, transport in absorptive direction (P-gp [6]) | PBA, transport in secretory direction (P-gp [6]) | PAB, transport in absorptive direction (+inh) (P-gp [6]) | PBA, transport in secretory direction (+inh) (P-gp [6]) | ratio of uptake +VER/−VER (HUT-78 cells [7]) | Absorption maximum λmax [8] [nm] | Molar extinction coefficient ε [8] [M⁻¹ cm⁻¹] | Quantum yield for fluorescence ΦFL [9] | Fluorescence emission maximum λFL [9] [nm] | other results
CN1CCC(C)(C)c2cc3c(cc21)[Se]c1cc2c(cc1=C3c1ccc(C(=O)N3CCCCC3)s1)C(C)(C)CC[N+]=2C.[Cl-] [Compd 10] | 614 | 105000 | 645 | 0.007 ± 0.001 | 0.95 ± 0.03 | 5.4 ± 0.8 | 22.2 ± 2.9 | 12.5 ± 0.4 | 29.8 ± 5.6 | ~2 ×10^−9 m s^−1 | 36 | 1.8 ± 1 ×10^−9 m s^−1 | 65 ×10^−9 m s^−1 and 65 ± 6 ×10^−9 m s^−1 | 0.51 ± 0.1 ×10^−9 m s^−1 | 4.0 ± 0.7 ×10^−9 m s^−1 |  |  |  |  |  | 
S=C(c1ccc(C2=c3cc4c5c(c3[Se]c3c2cc2c6c3CCCN6CCC2)CCC[N+]=5CCC4)s1)N1CCCCC1.[Cl-] [Compd 5, 9-(5-(piperidylcarbamothioyl)thiophen-2-yl)-2,3,6,7,12,13,16,17-octahydro-[1H,5H,11H,15H]-10-selenoxantheno[2,3,4-ij:5,6,7-i′j′]diquinolizin-18-ium chloride] |  |  |  |  |  | 2.0 ± 0.9 | 12.1 ± 2.6 | 4.8 ± 1.0 | 17.1 ± 4.3 | <1 ×10^−9 m s^−1 | 57 | 0.3 ± 0.3 ×10^−9 m s^−1 | 18 ×10^−9 m s^−1 | 0.51 ± 0.3 ×10^−9 m s^−1 | 0.57 ± 0.1 ×10^−9 m s^−1 | 1.17 ± 0.13 | 626 | 99000 | 0.010 ± 0.002 | 660 | Quantum yield for the generation of singlet oxygen Φ(1O2) [10]: 0.51 ± 0.03; ratio of uptake +VER/−VER (Colo-26 cells): 2.9; n-octanol/water partition coefficient log P [11]: 4.1 ± 0.2
C[N+]1=c2cc3c(cc2C(C)(C)CC1)=C(c1ccc(C(=O)N2CCCCC2)s1)c1cc2c4c(c1[Se]3)CCCN4CCC2.[Cl-] [Compd 8] | 620 | 110000 | 650 | 0.009 ± 0.001 | 0.64 ± 0.03 | 6.0 ± 0.2 | 10.3 ± 1.4 | 5.0 ± 0.9 |  | ~1 ×10^−9 m s^−1 | 48 | 1.4 ± 0.8 ×10^−9 m s^−1 | 66 ×10^−9 m s^−1 and 66 ± 10 ×10^−9 m s^−1 | 0.18 ± 0.1 ×10^−9 m s^−1 | 2.8 ± 0.2 ×10^−9 m s^−1 |  |  |  |  |  | 
CN1CCC(C)(C)c2cc3c(cc21)[Se]c1cc2c(cc1=C3c1ccc(C(=S)N3CCCCC3)s1)C(C)(C)CC[N+]=2C.[Cl-] [Compd 9] | 614 | 93000 | 645 | 0.006 ± 0.001 | 0.64 ± 0.03 | 8.1 ± 4.1 | 9.2 ± 2.2 | 7.0 ± 0.7 |  | <1 ×10^−9 m s^−1 | 4 |  | 6.3 ×10^−9 m s^−1 and 6.3 ± 1.2 ×10^−9 m s^−1 | 0.51 ± 0.1 ×10^−9 m s^−1 | 0.13 ± 0.1 ×10^−9 m s^−1 |  |  |  |  |  | % survival CD4+ (CD4+ (helper T cells)): 0 ± 0%; % survival CD8+ (CD8+ (cytotoxic T cells)): 0 ± 0%
C[N+]1=c2cc3c(cc2C(C)(C)CC1)=C(c1ccc(C(=S)N2CCCCC2)s1)c1cc2c4c(c1[Se]3)CCCN4CCC2.[Cl-] [Compd 7] | 620 | 92000 | 650 | 0.008 ± 0.001 | 0.54 ± 0.03 | 5.1 ± 0.9 | 5.7 ± 2.6 | 2.6 ± 0.9 |  | <1 ×10^−9 m s^−1 | 20 | 0.44 ± 0.1 ×10^−9 m s^−1 | 8.8 ×10^−9 m s^−1 and 8.8 ± 0.3 ×10^−9 m s^−1 | 0.46 ± 0.1 ×10^−9 m s^−1 | 0.32 ± 0.2 ×10^−9 m s^−1 |  |  |  |  |  | % survival CD4+ (CD4+ (helper T cells)): 0 ± 0%; % survival CD8+ (CD8+ (cytotoxic T cells)): 0 ± 0%
CN1CCC(C)(C)c2cc3c(-c4ccc(C(=O)N5CCCCC5)s4)c4ccc(=[N+](C)C)cc-4[se]c3cc21.[Cl-] [Compd 4] |  |  |  |  |  | 6.7 ± 1.2 | 26.6 ± 4.6 | 17.4 ± 1.7 | 32.3 ± 6.0 |  |  |  |  |  |  | 1.33 ± 0.04 | 609 | 87300 | 0.009 ± 0.001 | 634 | Quantum yield for the generation of singlet oxygen Φ(1O2) [10]: 0.48 ± 0.03; PPassive (P-gp [12]): ~6 ×10^−9 m s^−1; PAB, transport in absorptive direction (P-gp [12]): 0.9 ± 0.3 ×10^−9 m s^−1; PBA, transport in secretory direction (P-gp [12]): 164 ×10^−9 m s^−1 and 164 ± 4 ×10^−9 m s^−1; PBA/PAB (P-gp [12]): 182; PAB, transport in absorptive direction (+inh) (P-gp [12]): 1.0 ± 0.1 ×10^−9 m s^−1; PBA, transport in secretory direction (+inh) (P-gp [12]): 11.1 ± 0.2 ×10^−9 m s^−1; ratio of uptake +VER/−VER (Colo-26 cells): 5.1; n-octanol/water partition coefficient log P [11]: 2.23 ± 0.04
MitoTracker Red [Compd 17] |  |  |  |  |  |  |  |  |  |  |  |  |  |  |  |  |  |  |  |  | mean bright detail similarity score with 18 (LYS) (HUT-78 cells [13]; lysosome-specific reporter LysoTracker): 0.6 ± 0.4; mean bright detail similarity score with 16 (MTG) (HUT-78 cells [13]; mitochondrial reporter MitoTracker Green): 3.1 ± 0.7
CN1CCC(C)(C)c2cc3c(-c4ccc(C(=S)N5CCCCC5)s4)c4ccc(=[N+](C)C)cc-4[se]c3cc21.[Cl-] [Compd 3] |  |  |  |  |  | 8.5 ± 1.2 | 21.0 ± 3.2 | 9.2 ± 1.0 | 29.1 ± 5.2 |  |  |  |  |  |  | 1.27 ± 0.19 | 608 | 81100 | 0.008 ± 0.001 | 634 | Quantum yield for the generation of singlet oxygen Φ(1O2) [10]: 0.44 ± 0.03; PPassive (P-gp [12]): ~2 ×10^−9 m s^−1; PAB, transport in absorptive direction (P-gp [12]): 1.9 ± 0.5 ×10^−9 m s^−1; PBA, transport in secretory direction (P-gp [12]): 29 ×10^−9 m s^−1 and 29 ± 3 ×10^−9 m s^−1; PBA/PAB (P-gp [12]): 15; PAB, transport in absorptive direction (+inh) (P-gp [12]): 1.7 ± 0.2 ×10^−9 m s^−1; PBA, transport in secretory direction (+inh) (P-gp [12]): 1.8 ± 0.1 ×10^−9 m s^−1; ratio of uptake +VER/−VER (Colo-26 cells): 1.9; n-octanol/water partition coefficient log P [11]: 1.61 ± 0.06
